In brackets after ≈: the same amount, converted by molar mass.
Columns and labels:
[1] = tested on: Leukemia L-1210 cells; assay: Antitumor test against leukemia L-1210 in CDF1 mice (T/C, %); assay type: in vivo, mouse (CDF1); conditions: for % Increase in life-span (T/C, %): 9 days
Protocol: Thus, to evaluate the antitumor effects of the new compounds according to the first aspect of this invention against experimental tumors in animals, CDF1 mice (four mice per group) were intraperitoneally transplanted with cells of Leukemia L-1210 at an amount of 1×10^5 cells/mouse. Since an elapsed time of 24 hours from the transplantation of the leukemia cells, a test compound according to this invention was administered intraperitoneally to the mice under test for 9 consecutive days once per day. […] While, mice of the control group (the untreated group) were administered with only physiological saline after the transplantation of the L-1210 cells. During the observation period, the numbers of the surviving mice in the treated group and in the control group were counted, and the mean survival days of mice in the treated group and in the control group were then calculated. From the mean survival day (C) of the untreated mice of the control group and the mean survival day (T) of the treated mice of the treated group, there were evaluated percentages (%) of the increase in the life-span of the treated mice, as T/C %. For a comparison purpose, 7-O-(2,6-dideoxy-2-fluoro-α-L-talopyranosyl)daunomycinone (abbreviation: FT-DM); 7-O-(2,6-dideoxy-2-fluoro-α-L-talopyranosyl)adriamycinone(abbreviation: FT-ADM); and adriamycin were also tested in the same manner as above. Incidentally, the mean survival day of mice of the control group (the untreated group) was amounting to 8 to 9 days, and the mean survival day of mice of the comparative groups having received the administration of adriamycin was varying dependently on the dosage of adriamycin.
Notes; Asterisks (*) indicate that development of toxicity such as
toxicityrelated death or a body weight loss was observed on the
corresponding mice tested.

[2] = tested on: mouse leukemia, P388 cells; assay: In vitro growth inhibition of P388 cells, 72 hours; assay type: cell-based; conditions: P388, 72 h
[3] = tested on: adriamycin-resistant P388 cells (P388/ADR); assay: In vitro growth inhibition of adriamycin-resistant P388 cells (P388/ADR), 72 hours; assay type: cell-based; conditions: Mus musculus, 72 h
[4] = clinical use, many instances; cited from earlier work
[5] = tested on: experimental tumors; conditions: test animals; background, earlier applications; cited from earlier work
[6] = low dosages which give high antitumor effects; test animals; cited from earlier work

Row | SMILES | % Increase in life-span (T/C, %) ([1]; 0.15 mg/kg/day i.p.) [%] | % Increase in life-span (T/C, %) ([1]; 0.3 mg/kg/day i.p., ">" = at least one of four mice survived 60 days or longer) [%] | % Increase in life-span (T/C, %) ([1]; 0.6 mg/kg/day i.p., ">" = at least one of four mice survived 60 days or longer) [%] | % Increase in life-span (T/C, %) ([1]; 1.25 mg/kg/day i.p., ">" = at least one of four mice survived 60 days or longer) [%] | % Increase in life-span (T/C, %) ([1]; 2.5 mg/kg/day i.p., ">" = at least one of four mice survived 60 days or longer) [%] | percentage (%) of increase in life-span (T/C, %) at maximum ([1]; 2.5 mg/kg/day to 5 mg/kg/day, L-1210 mice) | % Increase in life-span (T/C, %) ([1]; 5 mg/kg/day i.p., ">" = at least one of four mice survived 60 days or longer) [%] | development of toxicity (in words) ([1]; daunomycin, adriamycin 2.5 mg/kg/day to 5 mg/kg/day, L-1210 mice) | IC50 [2] [µg/mL] | IC50 [3] [µg/mL] | serious side-effects (in words) [4] | anticancer or antitumor activity (in words) [5] | development of acute toxicity (in words) [6]
1 | COc1cccc2c1C(=O)c1c(O)c3c(c(O)c1C2=O)C[C@@](O)(C(=O)CO)C[C@@H]3O[C@H]1C[C@H](N)[C@H](O)[C@H](C)O1 [Adriamycin, adriamycin, reference compound] | 140 | 132 | 208 | 330 | 273 | approximately 330% | 177 | being accompanied by development of toxicity | 0.033 (≈ 0.0607 µM) | 1.3 (≈ 2.39 µM) | serious side-effects such as leukocytopenia, alopecia, myocardiopathy and others | – | –
2 | COc1cccc2c1C(=O)c1c(O)c3c(c(O)c1C2=O)C[C@@](O)(C(=O)CO)C[C@@H]3O[C@H]1C[C@H](O)[C@H](O)[C@H](C(F)(F)F)O1 [formula (D), 7-O-(2,6-dideoxy-6,6,6-trifluoro-α-L-lyxo-hexopyranosyl)adriamycinone] | – | – | – | – | – | – | – | – | – | – | – | high anticancer or antitumor activity | development of acute toxicity does not take place

Reference: patent US5789386A, “Fluorine-containing anthracycline derivatives having hydroxyl groups(s) mono- or di-o-aminoalkanoylated in the sugar moiety thereof” (priority 1995, dated 1998)
